# From PubChem BioAssay (NCI)
#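 A five-concentration, 48-hour dose response in 96-well plates underlies each endpoint, interpolated linearly between surrounding concentrations. TGI marks complete inhibition of growth.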
# How the values were obtained:
# Assay in all cases: NCI anticancer screen, dose series, 48 h
# BT-549 breast = system: BT-549 breast
# DU-145 prostate = system: DU-145 prostate
# HCC-2998 colon = system: HCC-2998 colon
# HOP-62 NSCLC = system: HOP-62 NSCLC
# HOP-92 NSCLC = system: HOP-92 NSCLC
# LOX IMVI melanoma = system: LOX IMVI melanoma
# MDA-N = system: MDA-N
# OVCAR-8 ovarian = system: OVCAR-8 ovarian
# T-47D breast = system: T-47D breast
# UACC-62 melanoma = system: UACC-62 melanoma
# SN12C renal = system: SN12C renal
Compound,TGI (BT-549 breast),TGI (DU-145 prostate),TGI (HCC-2998 colon),TGI (HOP-62 NSCLC),TGI (HOP-92 NSCLC),TGI (LOX IMVI melanoma),TGI (MDA-N),TGI (OVCAR-8 ovarian),TGI (T-47D breast),TGI (UACC-62 melanoma),TGI (SN12C renal)
N#Cc1c(-c2ccc(Cl)cc2)cc(-c2ccc(Nc3ccnc4cc(Cl)ccc34)cc2)[nH]c1=O,54.2 µM,> 100 µM,> 100 µM,> 62.8 µM,61.2 µM,> 100 µM,> 100 µM,> 100 µM,> 100 µM,> 100 µM,
CC1C(NNC(N)=O)Oc2cc3c(cc2C1c1ccccc1O)OCO3 (configuration not stated),> 100 µM,> 100 µM,> 100 µM,> 100 µM,50.4 µM,> 100 µM,76.7 µM,,> 100 µM,> 100 µM,> 100 µM
CSC(=S)Nc1cc(C)cc(C)n1,> 100 µM,> 31.6 µM,> 31.6 µM,> 100 µM,> 31.6 µM,> 31.6 µM,> 31.6 µM,> 31.6 µM,> 31.6 µM,> 31.6 µM,> 31.6 µM
CC(=O)O[C@H]1CC[C@@]2(C)C(=CC[C@@H]3[C@@H]2CC[C@]2(C)C(=N/O)/C(=C\c4ccccc4)C[C@@H]32)C1,> 100 µM,> 91 µM,32 µM,71.6 µM,88.5 µM,26 µM,99.4 µM,> 100 µM,> 93.7 µM,31.9 µM,38.1 µM
O=C(O)CSc1ccccc1C(=O)O,> 100 µM,> 100 µM,46.8 µM,> 100 µM,> 100 µM,> 100 µM,> 100 µM,> 100 µM,> 100 µM,> 100 µM,> 100 µM
COC(=O)[C@@H]1CS(=O)(=O)C(C(C)C)N1C(C)=O (some centres not stated),> 100 µM,> 100 µM,> 100 µM,> 100 µM,> 100 µM,> 100 µM,> 100 µM,> 100 µM,> 100 µM,> 100 µM,> 100 µM
O=C(/C(=C(/O)c1ccccc1)c1nc2ccccc2sc1=O)c1ccccc1,> 100 µM,> 100 µM,59.7 µM,44.1 µM,> 100 µM,> 100 µM,> 100 µM,> 100 µM,> 100 µM,> 100 µM,90.5 µM
CCOC(=O)/C(C(N)=O)=C(\O)C(=O)/C(Br)=C(\O)c1ccccc1,33.7 µM,39.7 µM,36.6 µM,41.5 µM,53.7 µM,36.3 µM,32.2 µM,39.5 µM,54.4 µM,33.3 µM,34.2 µM
CCOC(=O)C1CC(C(=O)c2ccccc2)N2c3ccccc3-c3ccccc3C12 (configuration not stated),> 100 µM,> 100 µM,> 100 µM,> 100 µM,> 100 µM,> 100 µM,> 100 µM,> 100 µM,> 100 µM,> 100 µM,> 100 µM
COC(=O)[C@H](Cc1c[nH]c2ccccc12)NP(=O)(OCCC#N)OCC1OC(n2cc(C)c(=O)[nH]c2=O)CC1N=[N+]=[N-] (some centres not stated),> 100 µM,> 100 µM,> 100 µM,> 100 µM,> 100 µM,> 100 µM,> 100 µM,> 100 µM,> 100 µM,> 100 µM,> 100 µM
Cc1cc(-n2nnc(C(=O)O)c2-c2ccccc2)c2ccc(Cl)cc2n1,> 100 µM,> 100 µM,> 100 µM,,> 100 µM,> 100 µM,> 100 µM,> 100 µM,> 100 µM,> 100 µM,> 100 µM
O=C1NC(=O)c2ccccc2/C1=C/c1ccc2c(c1)OCO2,50.8 µM,> 100 µM,38.9 µM,28.7 µM,> 100 µM,46.4 µM,> 100 µM,95.1 µM,> 100 µM,54.3 µM,47.1 µM
COc1cc2cc(C(=O)N3CC(COS(C)(=O)=O)c4ccc(NC(=O)OCc5ccccc5)cc43)[nH]c2c(OC)c1OC (configuration not stated),> 100 µM,> 100 µM,> 100 µM,> 100 µM,> 100 µM,> 100 µM,> 100 µM,> 100 µM,> 100 µM,> 100 µM,> 100 µM
C=C(C(=O)O[C@H]1C/C(C)=C/CC/C(CO)=C/[C@H]2C(=O)OC(=C)[C@H]12)C(O)CO (some centres not stated),30.2 µM,33.4 µM,30.1 µM,> 59.9 µM,31.4 µM,36 µM,25.3 µM,40.1 µM,11.8 µM,31.5 µM,30.6 µM
Clc1sc(Cl)c2c1[C@@H](Cl)C[C@@H]2Cl,> 100 µM,> 100 µM,> 100 µM,> 100 µM,> 100 µM,> 100 µM,> 100 µM,> 100 µM,> 100 µM,> 100 µM,> 100 µM
O=C(Nc1sccc1S(=O)(=O)c1ccc(Cl)cc1)c1ccc(F)cc1F,46.8 µM,> 100 µM,> 100 µM,80.1 µM,42.5 µM,> 100 µM,> 100 µM,> 100 µM,> 100 µM,86.8 µM,> 100 µM
Cc1cn(C2CCC(CO)(CF)O2)c(=O)[nH]c1=O (configuration not stated),> 100 µM,> 100 µM,> 100 µM,> 100 µM,> 100 µM,> 100 µM,> 100 µM,> 100 µM,> 100 µM,> 100 µM,> 100 µM
COC(=O)C1=C(OC(=O)/C(=C/c2ccccc2)c2ccc(OC)cc2)C(C(=O)OC)[C@@]2(O)[C@@H](C(=O)OC)[C@H](C)C[C@@H]1[C@@H]2C(=O)OC (some centres not stated),> 100 µM,> 100 µM,> 100 µM,> 100 µM,,> 100 µM,> 100 µM,> 100 µM,> 100 µM,> 100 µM,> 100 µM
Fc1cccc(F)c1C1SCc2nc3cc(Cl)c(Cl)cc3n21 (configuration not stated),> 100 µM,> 100 µM,> 100 µM,> 100 µM,> 100 µM,> 100 µM,> 100 µM,> 100 µM,> 100 µM,> 100 µM,> 100 µM
COc1cc(/C=C2\CC/C(=C\c3cc(OC)c(O)c(OC)c3)C2=O)cc(OC)c1O,7.44 µM,16.5 µM,3.38 µM,> 100 µM,,6.26 µM,> 23.4 µM,> 26.1 µM,8.02 µM,3.8 µM,> 29.3 µM
COc1ccc(C2C3=C(N=C4SC(C(C)=O)=C(C)N42)c2ccccc2CC3)cc1 (configuration not stated),> 100 µM,> 100 µM,> 100 µM,> 100 µM,> 100 µM,> 100 µM,> 100 µM,> 100 µM,> 100 µM,> 100 µM,> 100 µM
CCCC[C@@H](C)/C=C1\CN2CCC[C@H]2[C@@](C)(OCc2ccccc2)[C@@H]1O,> 50 µM,> 19.3 µM,> 50 µM,18.4 µM,> 50 µM,> 50 µM,> 50 µM,> 50 µM,> 19.3 µM,> 50 µM,> 50 µM
Cc1cc(S(=O)(=O)Nc2nc3ncccc3[nH]2)c(S)cc1Cl,> 100 µM,> 100 µM,> 100 µM,> 100 µM,> 100 µM,> 100 µM,> 100 µM,> 100 µM,> 100 µM,> 100 µM,> 100 µM
NC(Cc1ccc(OCc2ccccc2)cc1)C(=O)NC(Cc1ccccc1)C(=O)Oc1c(Cl)c(Cl)c(Cl)c(Cl)c1Cl (configuration not stated),32.7 µM,27 µM,34 µM,30.5 µM,25.8 µM,27.1 µM,26.8 µM,31.8 µM,37.1 µM,32.7 µM,32 µM
C[C@@H]1[C@@H](C)C(c2ccccc2)O[Si]1(C(C)(C)C)C(C)(C)C (some centres not stated),57.1 µM,31.6 µM,> 55.8 µM,31.4 µM,38.8 µM,30.9 µM,48.4 µM,33.8 µM,37.2 µM,46.3 µM,31.3 µM
Cc1nc2cc(F)c(F)cc2[nH]c1=O,> 100 µM,> 100 µM,> 100 µM,> 100 µM,> 100 µM,> 100 µM,> 100 µM,> 100 µM,> 100 µM,> 100 µM,> 100 µM
C#C[C@]1(O)CC[C@H]2[C@@H]3CCC4=C/C(=N/NC(=O)c5cccc6c(=O)c7ccccc7[nH]c56)CCC4[C@H]3CC[C@@]21C (some centres not stated),63.3 µM,> 100 µM,> 100 µM,> 100 µM,> 100 µM,> 100 µM,> 100 µM,> 100 µM,> 100 µM,> 100 µM,> 100 µM
Nc1cc2c(c3ccccc13)C(CCl)CN2C(=O)c1cc2cc(NC(=O)Nc3ccc4[nH]c(C(=O)N5CC(CCl)c6c5cc(N)c5ccccc65)cc4c3)ccc2[nH]1 (configuration not stated),4.53 µM,0.704 µM,1.19 µM,1.55 µM,> 100 µM,12 µM,2.49 µM,,1.34 µM,1.05 µM,> 100 µM
